Experimental data: ChEMBL document CHEMBL5724914, “Linking interpersonal differences in gut microbiota composition and drug biotransformation activity” (2024)

Assays:
[1] = The drug is tested on WLS-077 corresponding to human gut metagenome with ENA study accession number: PRJEB37062 and ENA sample accession number: ERS12561750 for biotransformation under anaerobic condition. The drug concentrations were measured over 9 timepoints collected between 0 and 24 hours of incubation by liquid-chromatography-coupled mass spectrometry (LC–MS); details: 2 µM
[2] = The drug is tested on WLS-069 corresponding to human gut metagenome with ENA study accession number: PRJEB37062 and ENA sample accession number: ERS12561748 for biotransformation under anaerobic condition. The drug concentrations were measured over 9 timepoints collected between 0 and 24 hours of incubation by liquid-chromatography-coupled mass spectrometry (LC–MS); details: 2 µM
[3] = human gut metagenome, 24 h, 2 µM
[4] = The drug is tested on WLS-038 corresponding to human gut metagenome with ENA study accession number: PRJEB37062 and ENA sample accession number: ERS12561745 for biotransformation under anaerobic condition. The drug concentrations were measured over 9 timepoints collected between 0 and 24 hours of incubation by liquid-chromatography-coupled mass spectrometry (LC–MS); details: 2 µM
[5] = human gut metagenome, 24 h, 2 µM; remark: listed apart in the source
[6] = The drug is tested on Z-022 corresponding to mouse gut metagenome with ENA study accession number: PRJEB37062 and ENA sample accession number: ERS12561821 for biotransformation under anaerobic condition. The drug concentrations were measured over 9 timepoints collected between 0 and 24 hours of incubation by liquid-chromatography-coupled mass spectrometry (LC–MS); details: 2 µM
[7] = human gut metagenome, 24 h, 2 µM; remark: listed apart in the source
[8] = human gut metagenome, 24 h, 2 µM; remark: listed apart in the source
[9] = The drug is tested on WLS-240 corresponding to human gut metagenome with ENA study accession number: PRJEB37062 and ENA sample accession number: ERS12561773 for biotransformation under anaerobic condition. The drug concentrations were measured over 9 timepoints collected between 0 and 24 hours of incubation by liquid-chromatography-coupled mass spectrometry (LC–MS); details: 2 µM
[10] = The drug is tested on WLS-086 corresponding to human gut metagenome with ENA study accession number: PRJEB37062 and ENA sample accession number: ERS12561752 for biotransformation under anaerobic condition. The drug concentrations were measured over 9 timepoints collected between 0 and 24 hours of incubation by liquid-chromatography-coupled mass spectrometry (LC–MS); details: 2 µM
[11] = The drug is tested on Z-021 corresponding to metagenome with ENA study accession number: PRJEB37062 and ENA sample accession number: ERS12561820 for biotransformation under anaerobic condition. The drug concentrations were measured over 9 timepoints collected between 0 and 24 hours of incubation by liquid-chromatography-coupled mass spectrometry (LC–MS); details: 2 µM
[12] = human gut metagenome, 24 h, 2 µM; remark: listed apart in the source
[13] = The drug is tested on Z-024 corresponding to pig gut metagenome with ENA study accession number: PRJEB37062 and ENA sample accession number: ERS12561823 for biotransformation under anaerobic condition. The drug concentrations were measured over 9 timepoints collected between 0 and 24 hours of incubation by liquid-chromatography-coupled mass spectrometry (LC–MS); details: 2 µM
[14] = The drug is tested on WLS-039 corresponding to human gut metagenome with ENA study accession number: PRJEB37062 and ENA sample accession number: ERS12561746 for biotransformation under anaerobic condition. The drug concentrations were measured over 9 timepoints collected between 0 and 24 hours of incubation by liquid-chromatography-coupled mass spectrometry (LC–MS); details: 2 µM
[15] = human gut metagenome, 24 h, 2 µM; remark: listed apart in the source
[16] = human gut metagenome, 24 h, 2 µM; remark: listed apart in the source
[17] = The drug is tested on Z-003 corresponding to pig gut metagenome with ENA study accession number: PRJEB37062 and ENA sample accession number: ERS12561803 for biotransformation under anaerobic condition. The drug concentrations were measured over 9 timepoints collected between 0 and 24 hours of incubation by liquid-chromatography-coupled mass spectrometry (LC–MS); details: 2 µM
[18] = The drug is tested on Z-025 corresponding to rabbit gut metagenome with ENA study accession number: PRJEB37062 and ENA sample accession number: ERS12561824 for biotransformation under anaerobic condition. The drug concentrations were measured over 9 timepoints collected between 0 and 24 hours of incubation by liquid-chromatography-coupled mass spectrometry (LC–MS); details: 2 µM
[19] = The drug is tested on WLS-350 corresponding to human gut metagenome with ENA study accession number: PRJEB37062 and ENA sample accession number: ERS12561789 for biotransformation under anaerobic condition. The drug concentrations were measured over 9 timepoints collected between 0 and 24 hours of incubation by liquid-chromatography-coupled mass spectrometry (LC–MS); details: 2 µM
[20] = human gut metagenome, 24 h, 2 µM; remark: listed apart in the source
Further: call rule not given here.

C[C@@H]1CC[C@H]2[C@@H](C)C(=O)O[C@@H]3O[C@@]4(C)CC[C@@H]1[C@]32OO4 [ARTEMISININ]
Bacterial Biotransformation [1]: Compound metabolized
Bacterial Biotransformation [2]: Compound metabolized
Bacterial Biotransformation [3]: Compound metabolized
Bacterial Biotransformation [4]: Compound metabolized
Bacterial Biotransformation [5]: Compound metabolized
Bacterial Biotransformation [6]: Compound metabolized
Bacterial Biotransformation [7]: Compound metabolized
Bacterial Biotransformation [8]: Compound metabolized
Bacterial Biotransformation [9]: Compound metabolized
Bacterial Biotransformation [10]: Compound metabolized
Bacterial Biotransformation [11]: Compound metabolized
Bacterial Biotransformation [12]: Compound metabolized
Bacterial Biotransformation [13]: Compound metabolized
Bacterial Biotransformation [14]: Compound metabolized
Bacterial Biotransformation [15]: Compound metabolized

C#C[C@]1(O)CC[C@H]2[C@@H]3CCC4=Cc5oncc5C[C@]4(C)[C@H]3CC[C@@]21C [DANAZOL]
Bacterial Biotransformation [1]: Compound metabolized
Bacterial Biotransformation [2]: Compound metabolized
Bacterial Biotransformation [4]: Compound metabolized
Bacterial Biotransformation [16]: Compound NOT metabolized
Bacterial Biotransformation [5]: Compound metabolized
Bacterial Biotransformation [6]: Compound metabolized
Bacterial Biotransformation [8]: Compound metabolized
Bacterial Biotransformation [9]: Compound metabolized
Bacterial Biotransformation [10]: Compound metabolized
Bacterial Biotransformation [11]: Compound metabolized
Bacterial Biotransformation [17]: Compound metabolized
Bacterial Biotransformation [12]: Compound metabolized
Bacterial Biotransformation [13]: Compound metabolized
Bacterial Biotransformation [14]: Compound metabolized
Bacterial Biotransformation [18]: Compound metabolized

CCN(CC)C(=O)/C(C#N)=C/c1cc(O)c(O)c([N+](=O)[O-])c1 [ENTACAPONE]
Bacterial Biotransformation [6]: Compound metabolized
Bacterial Biotransformation [11]: Compound metabolized
Bacterial Biotransformation [17]: Compound metabolized
Bacterial Biotransformation [13]: Compound metabolized
Bacterial Biotransformation [18]: Compound metabolized
Bacterial Biotransformation [15]: Compound NOT metabolized

O=C1[C@H](CC[C@H](O)c2ccc(F)cc2)[C@@H](c2ccc(O)cc2)N1c1ccc(F)cc1 [EZETIMIBE]
Bacterial Biotransformation [1]: Compound metabolized
Bacterial Biotransformation [2]: Compound metabolized
Bacterial Biotransformation [3]: Compound NOT metabolized
Bacterial Biotransformation [4]: Compound NOT metabolized
Bacterial Biotransformation [16]: Compound NOT metabolized
Bacterial Biotransformation [5]: Compound metabolized
Bacterial Biotransformation [6]: Compound NOT metabolized
Bacterial Biotransformation [7]: Compound NOT metabolized
Bacterial Biotransformation [19]: Compound NOT metabolized
Bacterial Biotransformation [8]: Compound metabolized
Bacterial Biotransformation [9]: Compound metabolized
Bacterial Biotransformation [10]: Compound metabolized
Bacterial Biotransformation [17]: Compound NOT metabolized
Bacterial Biotransformation [20]: Compound NOT metabolized
Bacterial Biotransformation [12]: Compound NOT metabolized
Bacterial Biotransformation [13]: Compound NOT metabolized
Bacterial Biotransformation [14]: Compound NOT metabolized
Bacterial Biotransformation [18]: Compound NOT metabolized
Bacterial Biotransformation [15]: Compound NOT metabolized

COc1ccccc1N1CCN(CC(O)COc2cccc3ccccc23)CC1 (configuration not stated) [NAFTOPIDIL]
Bacterial Biotransformation [1]: Compound NOT metabolized
Bacterial Biotransformation [2]: Compound NOT metabolized
Bacterial Biotransformation [3]: Compound NOT metabolized
Bacterial Biotransformation [4]: Compound NOT metabolized
Bacterial Biotransformation [16]: Compound NOT metabolized
Bacterial Biotransformation [5]: Compound NOT metabolized
Bacterial Biotransformation [6]: Compound metabolized
Bacterial Biotransformation [7]: Compound NOT metabolized
Bacterial Biotransformation [19]: Compound NOT metabolized
Bacterial Biotransformation [8]: Compound NOT metabolized
Bacterial Biotransformation [9]: Compound NOT metabolized
Bacterial Biotransformation [10]: Compound NOT metabolized
Bacterial Biotransformation [11]: Compound metabolized
Bacterial Biotransformation [17]: Compound NOT metabolized
Bacterial Biotransformation [20]: Compound NOT metabolized
Bacterial Biotransformation [12]: Compound NOT metabolized
Bacterial Biotransformation [13]: Compound metabolized
Bacterial Biotransformation [14]: Compound NOT metabolized
Bacterial Biotransformation [15]: Compound NOT metabolized

Cc1nc2n(c(=O)c1CCN1CCC(c3noc4cc(F)ccc34)CC1)CCCC2O (configuration not stated) [PALIPERIDONE]
Bacterial Biotransformation [1]: Compound metabolized
Bacterial Biotransformation [2]: Compound metabolized
Bacterial Biotransformation [3]: Compound metabolized
Bacterial Biotransformation [4]: Compound metabolized
Bacterial Biotransformation [16]: Compound metabolized
Bacterial Biotransformation [5]: Compound metabolized
Bacterial Biotransformation [6]: Compound NOT metabolized
Bacterial Biotransformation [7]: Compound metabolized
Bacterial Biotransformation [19]: Compound metabolized
Bacterial Biotransformation [8]: Compound metabolized
Bacterial Biotransformation [9]: Compound metabolized
Bacterial Biotransformation [10]: Compound metabolized
Bacterial Biotransformation [11]: Compound metabolized
Bacterial Biotransformation [17]: Compound NOT metabolized
Bacterial Biotransformation [20]: Compound metabolized
Bacterial Biotransformation [12]: Compound metabolized
Bacterial Biotransformation [13]: Compound metabolized
Bacterial Biotransformation [14]: Compound metabolized
Bacterial Biotransformation [15]: Compound metabolized

CN(C)CCc1c[nH]c2ccc(Cn3cncn3)cc12.O=C(O)c1ccccc1 [RIZATRIPTAN BENZOATE]
Bacterial Biotransformation [1]: Compound NOT metabolized
Bacterial Biotransformation [2]: Compound NOT metabolized
Bacterial Biotransformation [4]: Compound NOT metabolized
Bacterial Biotransformation [16]: Compound NOT metabolized
Bacterial Biotransformation [5]: Compound NOT metabolized
Bacterial Biotransformation [6]: Compound NOT metabolized
Bacterial Biotransformation [7]: Compound NOT metabolized
Bacterial Biotransformation [19]: Compound NOT metabolized
Bacterial Biotransformation [8]: Compound NOT metabolized
Bacterial Biotransformation [9]: Compound NOT metabolized
Bacterial Biotransformation [10]: Compound NOT metabolized
Bacterial Biotransformation [11]: Compound NOT metabolized
Bacterial Biotransformation [17]: Compound NOT metabolized
Bacterial Biotransformation [20]: Compound NOT metabolized
Bacterial Biotransformation [12]: Compound NOT metabolized
Bacterial Biotransformation [13]: Compound NOT metabolized
Bacterial Biotransformation [14]: Compound NOT metabolized
Bacterial Biotransformation [18]: Compound NOT metabolized
Bacterial Biotransformation [15]: Compound NOT metabolized
